Source: patent US20080287430A1, “Furan Compounds Useful As Ep1 Receptor Antagonists” (priority 2005, published 2008)
Where a name gives a salt, the structure may show the parent alone.

Legend:
human EP1 receptor [1] = biological target: T1, human EP1 receptor (Homo sapiens, UniProt P34995); assay: Binding assay for the human prostanoid EP1 receptor (competition with [3H]-PGE2); conditions: binding to human EP1 receptor, [3H]-PGE2 competition, CHO-K1 cell membranes; averages of a number of experiments; read-out: pIC50 value (converted)
T1 construct: expressed in transfected cells; host or cells: CHO-K1
T1 sequence (P34995 1-402): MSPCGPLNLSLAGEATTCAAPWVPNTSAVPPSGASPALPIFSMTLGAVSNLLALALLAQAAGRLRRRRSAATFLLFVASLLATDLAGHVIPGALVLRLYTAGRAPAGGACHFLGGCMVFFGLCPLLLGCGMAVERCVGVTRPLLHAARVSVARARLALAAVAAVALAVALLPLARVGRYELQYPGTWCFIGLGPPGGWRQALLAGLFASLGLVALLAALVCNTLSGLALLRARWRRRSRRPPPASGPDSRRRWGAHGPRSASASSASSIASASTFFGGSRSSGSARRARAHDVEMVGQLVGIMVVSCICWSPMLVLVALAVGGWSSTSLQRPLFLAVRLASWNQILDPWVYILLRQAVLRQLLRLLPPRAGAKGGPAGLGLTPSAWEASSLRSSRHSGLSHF
Experimental: Competition assay using [^3H]-PGE2.
Compound potencies are determined using a radioligand binding assay. In this assay compound potencies are determined from their ability to compete with tritiated prostaglandin E2 ([^3H]-PGE2) for binding to the human EP1 receptor.
This assay utilises Chinese hamster ovary-K1 (CHO-K1) cells into which a stable vector containing the EP1 cDNA has previously been transfected. Cells are cultured in suitable flasks containing culture medium such as DMEM:F-12 supplemented with 10% v/v foetal calf serum, 2 mM L-glutamine, 0.25 mg/ml geneticin, 10 μg/ml puromycin and 10 μM indomethacin.
Cells are detached from the culture flasks by incubation in calcium and magnesium free phosphate buffered saline containing 1 mM disodium ethylenediaminetetraacetic acid (Na2EDTA) and 10 μM indomethacin for 5 min. The cells are isolated by centrifugation at 250×g for 5 mins and suspended in an ice cold buffer such as 50 mM Tris, 1 mM Na2EDTA, 140 mM NaCl, 10 μM indomethacin (pH 7.4). The cells are homogenised using a Polytron tissue disrupter (2×10 s burst at full setting), centrifuged at 48,000×g for 20 mins and the pellet containing the membrane fraction is washed (optional) three times by suspension and centrifugation at 48,000×g for 20 mins. The final membrane pellet is suspended in an assay buffer such as 10 mM 2-[N-morpholino]ethanesulphonic acid, 1 mM Na2EDTA, 10 mM MgCl2 (pH 6). Aliquots are frozen at −80° C. until required.
For the binding assay the cell membranes, competing compounds and [^3H]-PGE2 (3 nM final assay concentration) are incubated in a final volume of 100 μl for 30 min at 30° C. All reagents are prepared in assay buffer. Reactions are terminated by rapid vacuum filtration over GF/B filters using a Brandell cell harvester. The filters are washed with ice cold assay buffer, dried and the radioactivity retained on the filters is measured by liquid scintillation counting in Packard TopCount scintillation counter.
The data are analysed using non linear curve fitting techniques to determine the concentration of compound producing 50% inhibition of specific binding (IC50).

human EP1 receptor [2] = biological target: T1, human EP1 receptor; assay: human EP1 calcium mobilisation assay; assay type: cell-based; conditions: human EP1, PGE2-induced calcium mobilisation in CHO-K1 cells; free bases or sodium salts; averages of a number of experiments; read-out: functional pKi value (converted)
Outline: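 CHO-K1 cells stably expressing human EP1, loaded with Fluo-4 after 24 h at 37° C; compounds added before PGE2 challenge. Inhibition of PGE2-induced [Ca2+]i rise read by FLIPR fluorescence; pIC50 from curve fitting of half-maximal inhibition.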

SMILES	IC50 (human EP1 receptor [1])	Ki (human EP1 receptor [2])
CC(C)COc1ccc(Cl)cc1Cc1ccc(-c2nc3nc(Br)cnc3[nH]2)o1 [Example 136, 5-Bromo-2-[5-({5-chloro-2-[(2-methylpropyl)oxy]phenyl}methyl)-2-furanyl]-1H-imidazo[4,5-b]pyrazine hydrochloride]	≤ 10 nM	> 1000 nM
CC(C)COc1ccc(Cl)cc1Cc1ccc(-c2nc3cc(N4CCN(C)CC4)ccc3[nH]2)o1 [Example 111, 2-[5-({5-Chloro-2-[(2-methylpropyl)oxy]-phenyl}methyl)-2-furanyl]-5-(4-methyl-1-piperazinyl)-1H-benzimidazoletrihydrochloride]	≤ 10 nM	< 1000 nM
COc1ccc2[nH]c(-c3ccc(Cc4cc(Cl)ccc4OCC(C)C)o3)nc2c1 [Example 105, 2-[5-({5-Chloro-2-[(2-methylpropyl)oxy]-phenyl}methyl)-2-furanyl]-5-(methyloxy)-1H-benzimidazole]	≤ 10 nM	< 1000 nM
Cc1cc(C(=O)O)oc1Cc1cc(Cl)ccc1OCc1ccccc1 [Example 15, Sodium 5-({5-chloro-2-[(phenylmethyl)oxy]phenyl}methyl)-4-methyl-2-furancarboxylate]	≤ 10 nM	≤ 10 nM
CC(C)COc1ccc(Cl)cc1Cc1ccc(-c2nc3ccc(CN4CCCC4)cc3[nH]2)o1 [Example 143, 2-[5-({5-Chloro-2-[(2-methylpropyl)oxy]-phenyl}methyl)-2-furanyl]-5-(1-pyrrolidinylmethyl)-1H-benzimidazoledihydrochloride]	≤ 10 nM	< 1000 nM
CC(C)COc1ccc(Cl)cc1Cc1ccc(-c2nc3ccc(CN(C)C)cc3[nH]2)o1 [Example 142, ({2-[5-({5-Chloro-2-[(2-methylpropyl)oxy]-phenyl}methyl)-2-furanyl]-1H-benzimidazol-5-yl}methyl)dimethyl-amine dihydrochloride]	≤ 10 nM	< 1000 nM
CC(C)COc1ccc(Cl)cc1Cc1ccc(-c2nc3ccc(CN4CCOCC4)cc3[nH]2)o1 [Example 144, 2-[5-({5-Chloro-2-[(2-methylpropyl)oxy]-phenyl}methyl)-2-furanyl]-5-(4-morpholinylmethyl)-1H-benzimidazoledihydrochloride]		< 1000 nM
O=C(NCc1ccccc1)c1ccc(Cc2cc(Cl)ccc2OCc2ccccc2)o1 [Example 48, 5-({5-Chloro-2-[(phenylmethyl)oxy]phenyl}methyl)-N-(phenylmethyl)-2-furancarboxamide]		< 1000 nM
CC(C)COc1ccc(Cl)cc1Cc1ccc(C(=O)n2cnc3ccccc32)o1 [Example 67, 1-{[5-({5-Chloro-2-[(2-methylpropyl)oxy]-phenyl}methyl)-2-furanyl]carbonyl}-1H-benzimidazole]		< 1000 nM
CC(C)CNC(=O)c1ccc(Cc2cc(Cl)ccc2OCc2ccccc2)o1 [Example 50, 5-({5-Chloro-2-[(phenylmethyl)oxy]phenyl}methyl)-N-(2-methylpropyl)-2-furancarboxamide]		< 1000 nM
CC(C)COc1ccc(Cl)cc1Cc1ccc(C(=O)NCc2ccc3c(c2)OCO3)o1 [Example 39, N-(1,3-Benzodioxol-5-ylmethyl)-5-({5-chloro-2-[(2-methylpropyl)oxy]phenyl}methyl)-2-furancarboxamide]		< 1000 nM
CC(C)COc1ccc(Cl)cc1Cc1ccc(-c2nc3cnc4ccccc4c3[nH]2)o1 [Example 118, 2-[5-({5-Chloro-2-[(2-methylpropyl)oxy]phenyl}-methyl)-2-furanyl]-1H-imidazo[4,5-c]quinoline]		< 1000 nM
Cc1cc(NC(=O)OC(C)(C)C)oc1Cc1cc(Cl)ccc1OCC(C)C [Example 30, 1,1-Dimethylethyl[5({5-chloro-2-[(2-methylpropyl)oxy]phenyl}methyl)-4-methyl-2-furanyl]carbamate]		< 1000 nM
CCNCc1ccc2nc(-c3ccc(Cc4cc(Cl)ccc4OCC(C)C)o3)[nH]c2c1 [Example 154, N-({2-[5-({5-Chloro-2-[(2-methylpropyl)oxy]-phenyl}methyl)-2-furanyl]-1H-benzimidazol-5-yl}methyl)ethanaminedihydrochloride]		< 1000 nM
CC(C)COc1ccc(Cl)cc1Cc1ccc(-c2nc3cccc(CO)c3[nH]2)o1 [Example 134, {2-[5-({5-chloro-2-[(2-methylpropyl)oxy]phenyl}methyl)-2-furanyl]-1H-benzimidazol-4-yl}methanol]		> 1000 nM
O=C(Nc1c(F)cccc1F)c1ccc(Cc2cc(Cl)ccc2OCc2c(F)cccc2F)o1 [Example 85, 5-[(5-Chloro-2-{[(2,6-difluorophenyl)methyl]oxy}-phenyl)methyl]-N-(2,6-difluorophenyl)-2-furancarboxamide]		< 1000 nM
CC(C)COc1ccc(Cl)cc1Cc1ccc(-c2nc3cc(CCN(C)C)ccc3[nH]2)o1 [Example 163, (2-{2-[5-({5-Chloro-2-[(2-methylpropyl)oxy]-phenyl}methyl)-2-furanyl]-1H-benzimidazol-5-yl}ethyl)dimethylaminedihydrochloride]		< 1000 nM

More lines, now with the values ahead:

IC50 (human EP1 receptor [1])	Ki (human EP1 receptor [2])	SMILES
≤ 10 nM	≤ 10 nM	O=C(O)c1ccc(Cc2cc(Cl)ccc2OCc2ccc(Cl)cc2F)o1 [Example 23, Sodium 5-[(5-chloro-2-{[(4-chloro-2-fluorophenyl)methyl]oxy}phenyl)methyl]-2-furancarboxylate]
≤ 10 nM	≤ 10 nM	CCC(CC)COc1ccc(Cl)cc1Cc1ccc(C(=O)O)o1 [Example 7, Sodium 5-({5-chloro-2-[(2-ethylbutyl)oxy]phenyl}methyl)-2-furancarboxylate]
≤ 10 nM	≤ 10 nM	O=C(Nc1c(F)cccc1F)c1ccc(Cc2cc(Cl)ccc2OCc2ccc(F)cc2F)o1 [Example 36, 5-[(5-Chloro-2-{[(2,4-difluorophenyl)methyl]oxy}phenyl)methyl]-N-(2,6-difluorophenyl)-2-furancarboxamide]
≤ 10 nM	< 1000 nM	CC(C)COc1ccc(Cl)cc1Cc1ccc(C(=O)O)o1 [Example 10, Sodium 5-({5-chloro-2-[(2-methylpropyl)oxy]phenyl}methyl)-2-furancarboxylate]
	< 1000 nM	O=C(Nc1c(F)cccc1F)c1ccc(Cc2cc(Cl)ccc2OCc2cc(F)c(F)cc2F)o1 [Example 88, 5-[(5-Chloro-2-{[(2,4,5-trifluorophenyl)methyl]oxy}-phenyl)methyl]-N-(2,6-difluorophenyl)-2-furancarboxamide]
	< 1000 nM	CCC(CC)Oc1ccc(Cl)cc1Cc1ccc(C(=O)O)o1 [Example 4, Sodium 5-({5-chloro-2-[(1-ethylpropyl)oxy]phenyl}methyl)-2-furancarboxylate]
	< 1000 nM	COCCOc1ccc(Cl)cc1Cc1ccc(C(=O)O)o1 [Example 8, Sodium 5-[(5-chloro-2-{[2-(methyloxy)ethyl]oxy}phenyl)methyl]-2-furancarboxylate]
	< 1000 nM	O=C(Nc1ccccc1F)c1ccc(Cc2cc(Cl)ccc2OCc2ccccc2)o1 [Example 69, 5-({5-Chloro-2-[(phenylmethyl)oxy]-phenyl}methyl)-N-(2-fluorophenyl)-2-furancarboxamide]
	≤ 10 nM	O=C(O)c1ccc(Cc2cc(Cl)ccc2OCc2cc(F)c(F)c(F)c2)o1 [Example 24, Sodium 5-[(5-chloro-2-{[(3,4,5-trifluorophenyl)methyl]oxy}phenyl)methyl]-2-furancarboxylate]
